From PubChem BioAssay AID1996
≈ marks a conversion by molar mass, not a printed value.

Conditions: buffer; pH 7.4; 200.0 µM

SMILES	solubility kinetic
Cc1cc(-c2ccccc2)nc2oc3c(c12)NC(=O)CN(c1ccccc1)C3=O	< 0.3 µg/mL
O=C(NC1CN2CCC1CC2)c1cccc(Cl)c1 (stereo not given)	> 39.7 µg/mL
CC(Sc1nncs1)C(=O)Nc1ccc(S(=O)(=O)Nc2ncccn2)cc1 (stereo not given)	> 63.4 µg/mL
CCOC(=O)c1cccc(NC(=S)NC(=O)c2cccnc2)c1	8.1 µg/mL (≈ 24.6 µM)
CCc1cccc(NS(=O)(=O)c2c(C)[nH]c(=O)[nH]c2=O)c1	> 46.4 µg/mL
O=C(NC1CCCCC1)N1CCc2ccccc2C1	> 38.8 µg/mL
Cc1ccccc1CC1CCN(CCCNC(=O)Nc2ccccc2)CC1	39.9 µg/mL (≈ 109 µM)
CC1=NOC(=O)/C1=C\c1ccc(-c2ccc(Cl)c(C(=O)O)c2)o1	> 49.8 µg/mL
CC(C)C(=O)Nc1ccc(S(=O)(=O)Nc2ccccn2)cc1	> 47.9 µg/mL
Cn1c(=O)n(Cc2ccc(Br)cc2)c2ccccc21	25.7 µg/mL (≈ 81 µM)
O=S(=O)(c1cnc(Cl)c(Cl)c1)N1CCN(c2ncccn2)CC1	0.4 µg/mL (≈ 1.07 µM)
COc1ccccc1CNC(=O)COC(=O)Cc1ccc(Br)cc1	13.7 µg/mL (≈ 34.9 µM)
O=C(COC(=O)c1ccc([N+](=O)[O-])o1)NCCc1ccccc1	> 47.7 µg/mL
COc1ccc(C(=O)Nc2ccc(C(=O)c3ccccc3)cc2)cc1	< 0.7 µg/mL
CC(=O)c1c(C)[nH]c(C(=O)OCC(=O)Nc2ccc3c(c2)OCCO3)c1C	3.8 µg/mL (≈ 10.2 µM)
CN(Cc1nc2ccccc2[nH]1)Cc1nc(CC2CC2)no1	> 44.6 µg/mL
COc1ccc(-c2cnc3n2CCCCC3)cc1	> 36.3 µg/mL
O=C(CCc1nc(-c2ccccc2Cl)no1)NCc1ccco1	> 49.8 µg/mL
CCN1CCCC1CNC(=O)C(=O)NCc1ccccc1 (stereo not given)	> 43.4 µg/mL
COc1ccc(S(=O)(=O)NCCCN2CCCC2=O)cc1OC	47.4 µg/mL (≈ 138 µM)
COc1ccc(CCNC(=O)C(=O)NCC2CCNCC2)cc1OC	> 52.4 µg/mL
Cc1ccc2c(c1)C(O)(CC(=O)c1cccc(-n3cccc3)c1)C(=O)N2 (stereo not given)	7.2 µg/mL (≈ 20.8 µM)
Cc1occc1C(=O)Nc1cnn(CCCC(=O)O)c1	> 41.6 µg/mL
O=C(O)CCC(NC(=S)Nc1ccccc1)C(=O)O (stereo not given)	> 42.3 µg/mL

SMILES	solubility kinetic
CCS(=O)(=O)N1CCC(C(=O)Nc2cc(C)ccc2O)CC1	> 49 µg/mL
COc1ccccc1C(CNc1ncccc1[N+](=O)[O-])N(C)C (stereo not given)	> 47.5 µg/mL
CNc1oc(-c2ccccc2)nc1S(=O)(=O)c1ccc(C)cc1	5.3 µg/mL (≈ 16.1 µM)
N/C(=N\OC(=O)COc1ccc2ccccc2c1)c1ccncc1	6.2 µg/mL (≈ 19.3 µM)
O=C(O)C(=O)O.O=[N+]([O-])c1ccccc1CNCCc1c[nH]c2ccccc12	41.8 µg/mL
COc1ccc2[nH]cc(CCNC(=S)NC3CCCC3)c2c1	43.6 µg/mL (≈ 137 µM)
Cc1cccc(N2C(=O)C(O)=C(C(=O)c3cccs3)C2c2ccccc2)n1 (stereo not given)	53 µg/mL (≈ 141 µM)
COc1ccc(OC(=O)N2CCOCC2)cc1	> 35.6 µg/mL
CCc1ccccc1NC(=O)NCCN1CCCCC1	> 41.3 µg/mL
CCN(CC(=O)N1CCCC1)S(=O)(=O)c1cc(C)ccc1OC	49.5 µg/mL (≈ 145 µM)
COc1cc2ccccc2cc1C(=O)Nc1ccncc1	38.6 µg/mL (≈ 139 µM)
O=[N+]([O-])c1c(NCCCO)cc(N2CCCCCC2)c2nonc12	28.6 µg/mL (≈ 85.3 µM)
O=C(Nc1ccc(NC(=O)c2ccccc2Cl)nc1)c1ccco1	10.2 µg/mL (≈ 29.8 µM)
Cc1ccccc1C(=O)Nc1ccc(S(=O)(=O)Nc2onc(C)c2C)cc1	50.5 µg/mL (≈ 131 µM)
O=S(=O)(Nc1cccnc1Cl)c1ccc(F)cc1	> 43 µg/mL
CCNC(=S)Nc1ccc(Cl)c([N+](=O)[O-])c1	> 39 µg/mL
CN(C)c1ccc(C(=O)N2CCNC(=O)C2CC(=O)Nc2ccc(F)cc2)cc1 (stereo not given)	55.1 µg/mL (≈ 138 µM)
NC(=O)COC(=O)/C=C/c1ccccc1[N+](=O)[O-]	33.1 µg/mL (≈ 132 µM)
CCCC1(CCC)NC(=O)N(CC(=O)Nc2ccc3c(c2)OCCO3)C1=O	> 56.3 µg/mL
CCn1ccnc1CN1CCN(CCC(C)C)C(CCO)C1 (stereo not given)	> 46.3 µg/mL
CC(C)c1ccc(NC(=O)C2CC(=O)N(C3CCCC3)C2)cc1 (stereo not given)	36.1 µg/mL (≈ 115 µM)
CN=C(Nc1cccnc1)c1cccc(C(F)(F)F)c1	> 41.9 µg/mL
CCCn1c(=O)c(C(=O)NC(C)c2ccccc2)c(O)c2ccccc21 (stereo not given)	1.3 µg/mL (≈ 3.71 µM)
O=C(COc1ccccc1C(=O)O)Nc1cccc2ccccc12	> 48.2 µg/mL

SMILES	solubility kinetic
COc1ccc(/C=C2\SC(N)=NC2=O)cc1Cl	3.1 µg/mL (≈ 11.5 µM)
O=C(CCCc1ccccc1)NCc1ccc2c(c1)OCO2	> 44.6 µg/mL
Cc1ccc(C(=O)NCCCN2CCOCC2)cc1Cl	42.5 µg/mL (≈ 143 µM)
O=[N+]([O-])c1ccc(N2CCOCC2)cc1O	> 33.6 µg/mL
Cc1nc2ccc(NC(=O)N3CCOCC3)cc2nc1C	> 42.9 µg/mL
CCn1c(C(O)c2cc(OC)ccc2OC)nc2ccccc21 (stereo not given)	> 46.9 µg/mL
CCn1c(NC(=O)c2ccccc2)nc2ccccc21	3 µg/mL (≈ 11.3 µM)
CCc1ccc(Nc2ncc3c(n2)CC(C)(C)CC3=O)cc1	1.1 µg/mL (≈ 3.72 µM)
Cc1occc1C(=O)Nc1c(Cl)cccc1Cl	37.1 µg/mL (≈ 137 µM)
Cc1nc(C)c(C(=O)OCC(=O)NCc2ccccc2Cl)s1	26.4 µg/mL (≈ 77.9 µM)
CCCc1nc(SCC(=O)NC2CCCC2)c2ccccc2n1	1.9 µg/mL (≈ 5.77 µM)
Cc1noc(NC(=O)c2cccc(Cl)c2Cl)c1C#N	43.1 µg/mL (≈ 146 µM)
O=C1c2cccnc2C(=O)N1c1cccc([N+](=O)[O-])c1	> 40.4 µg/mL
Cc1cccc(-n2c(C)cc(/C=C3\NC(=O)NC3=O)c2C)c1	1.8 µg/mL (≈ 6.09 µM)
CCc1nnc(NC(=O)C2CSC3(C)CCC(=O)N23)s1 (stereo not given)	> 46.9 µg/mL
O=C(CCc1c[nH]c2ccccc12)NCCc1ccc2c(c1)OCCO2	44.4 µg/mL (≈ 127 µM)
COC(=O)c1cc(S(=O)(=O)N2CCCCCC2)cn1C	38.8 µg/mL (≈ 129 µM)
CC(C)N1C(=O)CCC1C(=O)NCc1ccc(F)cc1Cl (stereo not given)	> 46.9 µg/mL
ON(Cc1c(F)cccc1Cl)Cc1c(F)cccc1Cl	0.9 µg/mL (≈ 2.83 µM)
O=C(c1cccc([N+](=O)[O-])c1)c1ccc2c(c1)OCCOCCOCCO2	> 56 µg/mL
CC(=O)c1sc2nc(-c3ccco3)ccc2c1N	6 µg/mL (≈ 23.2 µM)
N#C/C(=C\c1ccc(O)c(O)c1)C(=O)N1CCCC1	37.3 µg/mL (≈ 144 µM)
O=C(NC1CCCCC1)c1cc(C2CC2)on1	> 35.1 µg/mL
COc1ccc(/C=N/NC(=O)CNC(=O)c2ccncc2)cc1	> 46.8 µg/mL

SMILES	solubility kinetic
OC1CCN(Cc2ccc(OCc3ccccc3)cc2)CC1	> 44.6 µg/mL
O=S(=O)(Nc1ccccc1N1CCCCC1)c1ccccc1	4.4 µg/mL (≈ 13.9 µM)
CC1(C)CC(=O)C(C2=NC3(CCCCCC3)Cc3ccccc32)=C(O)C1	49.8 µg/mL (≈ 142 µM)
O=C(CO/N=C/c1ccc(OC(F)F)cc1)NC1CCCCC1	6.7 µg/mL (≈ 20.5 µM)
CC(C)NC(=O)[C@H]1N2C(=O)c3ccccc3C2SC1(C)C (stereo not given in full)	> 45.7 µg/mL
O=C(CNC(=O)c1ccc(Br)o1)NCc1cccc(Cl)c1	55.5 µg/mL (≈ 149 µM)
O=C(NC(Cc1ccccc1)C(=O)NC1CC1)OCc1ccccc1 (stereo not given)	11.5 µg/mL (≈ 34 µM)
CCN1C(=O)/C(=C\c2cccc(OC(=O)c3ccco3)c2)SC1=S	< 0.8 µg/mL
O=C(CN1c2cccc3cccc(c23)S1(=O)=O)N1CCCCC1	> 49.6 µg/mL
CN(C)c1ccc(/C=N/OC(=O)Nc2ccccc2)cc1	11 µg/mL (≈ 38.8 µM)
O=c1[nH]c(SCc2cccc(F)c2)nc2ccccc12	< 0.3 µg/mL
COc1ccc(CN2CCCN(C)CC2)c(OC)c1C	26.8 µg/mL (≈ 96.3 µM)
COc1ccc(C(=O)OCC(=O)c2ccc[nH]2)cc1	20.4 µg/mL (≈ 78.7 µM)
CN(C)c1ccc(/C=C/c2nc3ccccc3c(=O)[nH]2)cc1	0.6 µg/mL (≈ 2.06 µM)
COc1cccc(CNC(=O)COC(=O)/C=C/c2ccc(SC)cc2)c1	3.8 µg/mL (≈ 10.2 µM)
CCC(C)(NC=O)C(=O)Nc1c(C)cccc1C (stereo not given)	> 37.2 µg/mL
Cc1ccc(C(=O)NC(=S)N(C)C2CCCCC2)cc1Br	1.1 µg/mL (≈ 2.98 µM)
FC(F)(F)c1cccc(NC2=NCCCS2)c1	33.7 µg/mL (≈ 129 µM)
CNc1nc(N)c([N+](=O)[O-])c(NC2CCCCC2)n1	1.7 µg/mL (≈ 6.38 µM)
COC(=O)c1ccc(NC(=O)Nc2ccc3c(c2)OCO3)cc1	0.8 µg/mL (≈ 2.55 µM)
CCCc1cc(=O)[nH]c(SC/C=C/c2ccccc2)n1	1.9 µg/mL (≈ 6.63 µM)
O=C1CSC(c2ccccn2)N1c1ccccc1F (stereo not given)	40.6 µg/mL (≈ 148 µM)
O=C(CSCc1c(Cl)cccc1Cl)Nc1cccnc1	35.9 µg/mL (≈ 110 µM)
Cc1cc(C)c(S(=O)(=O)NCc2ccc3c(c2)OCO3)c(C)c1	1.7 µg/mL (≈ 5.1 µM)

SMILES	solubility kinetic
O=C(COC(=O)c1ccc(Br)cc1)NCC1CCCO1 (stereo not given)	> 51.3 µg/mL
COc1ccc2nc(NC(=O)C3CC(=O)N(c4ccccc4)C3)sc2c1 (stereo not given)	0.7 µg/mL (≈ 1.91 µM)
COc1ccc(Nc2ncnc3sc(C)cc23)c(OC)c1.Cl	> 50.7 µg/mL
Cc1ccc(C(=O)NCCc2c[nH]c3ccccc23)c(C)c1	23 µg/mL (≈ 78.7 µM)
Brc1ccc2[nH]c3c(c2c1)CCC3	3.1 µg/mL (≈ 13.1 µM)
Cc1ccc(Oc2ncnc(N)c2[N+](=O)[O-])cc1C	4.8 µg/mL (≈ 18.4 µM)
Cc1cc(S(=O)(=O)Nc2ccc(C(=O)NCC3CCCO3)cc2)ccc1F (stereo not given)	1 µg/mL (≈ 2.55 µM)
Clc1cc2nc(-c3cccnc3Cl)[nH]c2cc1Cl	0.8 µg/mL (≈ 2.68 µM)
CC1CN(C(=O)COC(=O)/C=C/c2cccc([N+](=O)[O-])c2)CC(C)O1 (stereo not given)	34.2 µg/mL (≈ 98.2 µM)
Cn1c(=O)[nH]c2c(Cl)nccc21	> 27.5 µg/mL
CCOC(=O)c1ccc(N=c2ssnc2Cl)cc1	4.8 µg/mL (≈ 16 µM)
CC(C)(C)c1ccc(C2=NC(=O)C(CC(=O)O)S2)cc1 (stereo not given)	37.4 µg/mL (≈ 128 µM)
Cc1ccnc(NC(=O)c2cc(F)c(F)cc2Cl)n1	> 42.6 µg/mL
CCC1(c2ccccc2)C(=O)NCNC1=O	> 32.7 µg/mL
CCOc1ncccc1C(=O)Nc1cc(C(F)(F)F)ccc1N1CCOCC1	4.1 µg/mL (≈ 10.4 µM)
Cc1ccccc1NC(=S)NNC(=O)c1ccco1	> 41.3 µg/mL
O=C(NCCc1cnc[nH]1)c1ccc(-c2ccccc2)cc1	28.2 µg/mL (≈ 96.8 µM)
CC(Cl)C(=O)Nc1cc(C(C)(C)C)nn1-c1ccccc1 (stereo not given)	> 45.9 µg/mL
O=C(CCNC(=O)c1ccc([N+](=O)[O-])cc1)Nc1nccs1	12.9 µg/mL (≈ 40.3 µM)
Cc1cc(C)n2cc(CSc3ccc(Cl)cc3)nc2n1	> 45.6 µg/mL
CN(CC(=O)Nc1cccc2ccccc12)C(=O)c1ccc(NC(=O)CC#N)cc1	> 60.1 µg/mL
O=C(CN1C(=O)NC2(CCCC2)C1=O)NCc1ccco1	> 43.7 µg/mL
Cc1ccccc1Nc1ccc([N+](=O)[O-])cn1	> 34.4 µg/mL
O=C(c1[nH]ncc1[N+](=O)[O-])N1CCOCC1	> 33.9 µg/mL
